{
  "source": "patent US10669242B2",
  "about": "(priority 2016, dated 2020)",
  "data": [
    {"target": "T1, recombinant glucosyltransferase domain of C. difficile Toxin B/TcdB (Clostridioides difficile, UniProt P18177)", "T1 construct": "6-His (C); purchased R&D Systems 6246-GT", "T1 sequence (P18177 1-543)": "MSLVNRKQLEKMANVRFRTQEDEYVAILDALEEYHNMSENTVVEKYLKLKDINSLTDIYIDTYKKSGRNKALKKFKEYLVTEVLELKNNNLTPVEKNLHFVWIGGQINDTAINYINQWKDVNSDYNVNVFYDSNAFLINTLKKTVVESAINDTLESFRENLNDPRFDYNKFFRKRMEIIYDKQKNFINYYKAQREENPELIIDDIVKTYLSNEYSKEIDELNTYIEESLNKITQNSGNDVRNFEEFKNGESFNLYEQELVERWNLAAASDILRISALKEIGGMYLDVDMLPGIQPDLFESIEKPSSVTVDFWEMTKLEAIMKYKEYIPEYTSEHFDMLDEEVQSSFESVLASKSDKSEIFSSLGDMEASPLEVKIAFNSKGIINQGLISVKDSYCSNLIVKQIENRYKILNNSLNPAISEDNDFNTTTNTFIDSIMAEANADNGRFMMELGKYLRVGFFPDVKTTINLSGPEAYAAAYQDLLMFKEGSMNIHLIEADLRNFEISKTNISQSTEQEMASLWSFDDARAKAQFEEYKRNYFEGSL", "experiment": "biochemical", "units": {"IC50": "µM"}, "values": [
      {"smiles": "C[C@@H]1C(=O)Nc2cc(Cl)ccc2C(=O)N1Cc1ccc(C(=O)Nc2ncc3ccccc3n2)cc1", "note": "[Example 5n, (R)-4-((8-chloro-3-methyl-2,5-dioxo-2,3-dihydro-1H-benzo[e][1,4]diazepin-4(5H)-yl)methyl)-N-(quinazolin-2-yl)benzamide]", "IC50": "0.1 to 0.999"},
      {"smiles": "O=C(O)c1ccc(CN2C(=O)c3ccc(Cl)cc3NC(=O)[C@H]2Cc2ccccn2)cc1-c1ccc(Cl)cc1", "note": "[Example 8i, (R)-4′-chloro-5-((8-chloro-2,5-dioxo-3-(pyridin-2-ylmethyl)-2,3-dihydro-1H-benzo[e][1,4]diazepin-4(5H)-yl)methyl)-[1,1′-biphenyl]-2-carboxylic acid]", "IC50": "0.1 to 0.999"},
      {"smiles": "O=C(Nc1ncc(C(F)(F)F)cn1)c1ccc(CN2C(=O)c3ccc(Cl)cc3NC(=O)[C@H]2Cc2ccccn2)cc1", "note": "[Example 49a, (R)-4-((8-Chloro-2,5-dioxo-3-(pyridin-2-ylmethyl)-2,3-dihydro-1H-benzo[e][1,4]diazepin-4(5H)-yl)methyl)-N-(5-(trifluoromethyl)pyrimidin-2-yl)benzamide]", "IC50": "< 0.1"},
      {"smiles": "O=C1CN(Cc2ccc(C(=O)O)cc2)C(=O)c2ccc(Cl)cc2N1", "note": "[Example 3o]", "IC50": "10 to 35"},
      {"smiles": "Cc1nc2cccnc2c(=O)n1-c1ccc(CN2C(=O)c3ccc(Cl)cc3NC(=O)[C@H]2Cc2ccccn2)cc1", "note": "[Example 47a, (R)-8-Chloro-4-(4-(2-methyl-4-oxopyrido[3,2-d]pyrimidin-3(4H)-yl)benzyl)-3-(pyridin-2-ylmethyl)-3,4-dihydro-1H-benzo[e][1,4]diazepine-2,5-dione]", "IC50": "< 0.1"},
      {"smiles": "COCC(=O)Nc1ccc(CN2C(=O)c3ccc(Cl)cc3NC(=O)[C@H]2Cc2ccccn2)cc1", "note": "[Example 30b]", "IC50": "10 to 35"},
      {"smiles": "Cc1cc(CN2C(=O)c3ccc(Cl)cc3NC(=O)[C@H]2Cc2ccccn2)cc(C)c1NC(=O)c1ccccn1", "note": "[Example 26k]", "IC50": "0.1 to 0.999"},
      {"smiles": "O=C(Nc1cccc(CN2C(=O)c3ccc(Cl)cc3NC(=O)[C@H]2Cc2ccccn2)c1)c1ccccn1", "note": "[Example 28a, (R)—N-(3-((8-Chloro-2,5-dioxo-3-(pyridin-2-ylmethyl)-2,3-dihydro-1H-benzo[e][1,4]diazepin-4(5H)-yl)methyl)phenyl)picolinamide]", "IC50": "< 0.1"},
      {"smiles": "Cc1cc(CN2C(=O)c3ccc(Cl)cc3NC(=O)[C@H]2Cc2ccccn2)ccc1C(=O)c1ccccn1", "note": "[Example 11h, (R)-8-chloro-4-(3-methyl-4-picolinoylbenzyl)-3-(pyridin-2-ylmethyl)-3,4-dihydro-1H-benzo[e][1,4]diazepine-2,5-dione]", "IC50": "< 0.1"},
      {"smiles": "CCc1ccc(NC(=O)c2ccc(CN3C(=O)c4ccc(Cl)cc4NC(=O)[C@H]3Cc3cccnc3)cc2)nc1", "note": "[Example 5k, (R)-4-((8-chloro-2,5-dioxo-3-(pyridin-3-ylmethyl)-2,3-dihydro-1H-benzo[e][1,4]diazepin-4(5H)-yl)methyl)-N-(5-ethylpyridin-2-yl)benzamide]", "IC50": "< 0.1"},
      {"smiles": "CCc1ccc(NC(=O)c2ccc(CN3C(=O)c4ccc(Cl)cc4NC(=O)[C@H]3C)cc2)nc1", "note": "[Example 4ay, (R)-4-((8-chloro-3-methyl-2,5-dioxo-2,3-dihydro-1H-benzo[e][1,4]diazepin-4(5H)-yl)methyl)-N-(5-ethylpyridin-2-yl)benzamide]", "IC50": "0.1 to 0.999"},
      {"smiles": "O=C(c1ccccn1)c1ccc(CN2C(=O)c3ccc(Cl)cc3NC(=O)[C@H]2Cc2ccccn2)cc1F", "note": "[Example 11f, (R)-8-chloro-4-(3-fluoro-4-picolinoylbenzyl)-3-(pyridin-2-ylmethyl)-3,4-dihydro-1H-benzo[e][1,4]diazepine-2,5-dione]", "IC50": "< 0.1"},
      {"smiles": "COc1cnc(NC(=O)c2ccc(S(=O)(=O)N3Cc4ccc(Cl)cc4NC(=O)[C@H]3Cc3ccccn3)cc2)nc1", "note": "[Example 19h, (R)-4-((8-chloro-2-oxo-3-(pyridin-2-ylmethyl)-2,3-dihydro-1H-benzo[e][1,4]diazepin-4(5H)-yl)sulfonyl)-N-(5-methoxypyrimidin-2-yl)benzamide]", "IC50": "< 0.1"}
    ]}
  ]
}
